Experimental data published in patent US20230322761A1, “DEGRADATION OF BRUTON'S TYROSINE KINASE (BTK) BY CONJUGATION OF BTK INHIBITORS WITH E3 LIGASE LIGAND AND METHODS OF USE” (BEIGENE, LTD., priority 2020, published 2023).

Target: T1, BTK (Homo sapiens, UniProt Q06187)
T1 construct: endogenous in cells; host or cells: TMD-8 cells
Experiment: BTK degradation in TMD-8 cells, HTRF assay after 6 h treatment
Format: cell-based
Conditions: for DC50: IC50 (DC50) of BTK degradation; for Dmax: TMD8, maximum percentage of inhibition (degradation)
Method: TMD-8 cells are treated with compounds diluted in 0.2% DMSO, dilution is done according to the following protocol: (1) make 500× stock solution in DMSO from 1 mM by 6-fold dilution, total 8 doses were included; (2) make 2× solution in cell culture medium by transferring 0.5 μl 500× stock solution into 125 μl medium; (3) 15 μl of 2× solution is added to cells and incubate for 6 h.
After 6 h treatment, add 10 μl 4×lysis buffer to each well; seal the plate and incubate 30 min at room temperature on a plate shaker; Once the cells are lysed, 16 μL of cell lysate are transferred to a PE 384-well HTRF detection plate; 4 μL of pre-mixed HTRF antibodies are added to each well; Cover the plate with a plate sealer, spin 1000 rpm for 1 min, Incubate overnight at room temperature; Read on BMG PheraStar with HTRF protocol (337 nm-665 nm-620 nm).
The IC50 (DC50) value of a compound can be obtained by fitting the following equation
Y=Bottom+(TOP−Bottom)/(1+((IC50/X)^hillslope))
Wherein, X and Y are known values, and IC50, Hillslope, Top and Bottom are the parameters obtained by fitting with software. Y is the inhibition percentage (calculated from the equation), X is the concentration of the compound; IC50 is the concentration of the compound when the 50% inhibition is reached. The smaller the IC50 value is, the stronger the inhibitory ability of the compound is. Vice versa, the higher the IC50 value is, the weaker the ability the inhibitory ability of the compound is; Hillslope represents the slope of the fitted curve, generally around 1*; Bottom represents the minimum value of the curve obtained by data fitting, which is generally 0%±20%; Top represents the maximum value of the curve obtained by data fitting, which is generally 100%±20%. The experimental data were fitted by calculating and analyzing with Dotmatics data analysis software.

T1 sequence (Q06187 whole entry): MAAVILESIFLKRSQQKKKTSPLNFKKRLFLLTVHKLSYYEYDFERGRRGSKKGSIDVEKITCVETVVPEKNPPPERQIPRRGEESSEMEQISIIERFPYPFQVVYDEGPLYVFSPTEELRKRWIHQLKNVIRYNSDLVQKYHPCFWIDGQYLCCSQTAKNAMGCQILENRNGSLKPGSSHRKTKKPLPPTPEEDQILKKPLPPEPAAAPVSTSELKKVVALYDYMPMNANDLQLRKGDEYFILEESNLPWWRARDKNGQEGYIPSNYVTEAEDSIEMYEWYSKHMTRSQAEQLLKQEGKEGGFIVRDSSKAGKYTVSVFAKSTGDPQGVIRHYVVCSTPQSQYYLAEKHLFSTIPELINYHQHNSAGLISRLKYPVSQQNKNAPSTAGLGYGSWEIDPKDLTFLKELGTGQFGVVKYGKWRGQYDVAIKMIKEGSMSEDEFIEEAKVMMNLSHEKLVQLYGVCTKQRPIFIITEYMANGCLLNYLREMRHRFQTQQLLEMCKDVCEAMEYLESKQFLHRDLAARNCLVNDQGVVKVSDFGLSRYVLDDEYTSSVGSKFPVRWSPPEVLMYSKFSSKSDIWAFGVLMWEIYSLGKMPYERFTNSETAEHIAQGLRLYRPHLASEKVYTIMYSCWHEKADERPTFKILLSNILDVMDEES

Row | SMILES | DC50 | Dmax
1 | Cc1cc(-c2n[nH]c3ncc(-c4ccc(C5CCN(CCc6ccc(C7CCC(=O)NC7=O)c7c6CCCC7)CC5)cc4)cc23)ccc1CNC(=O)c1nc(C(C)(C)C)no1 (stereo not shown) [Example 26, 3-(tert-butyl)-N-(4-(5-(4-(1-(2-(4-(2,6-dioxopiperidin-3-yl)-5,6,7,8-tetrahydronaphthalen-1-yl)ethyl)piperidin-4-yl)phenyl)-1H-pyrazolo[3,4-b]pyridin-3-yl)-2-methylbenzyl)-1,2,4-oxadiazole-5-carboxamide] | 28.9 nM | 94.3%
2 | Cc1cc(-c2n[nH]c3ncc(-c4ccc(C5CCN(CCCOc6ccc(C7CCC(=O)NC7=O)c(C)c6)CC5)cc4)cc23)ccc1CNC(=O)c1nc(C(C)(C)C)no1 (stereo not shown) [Example 27, 3-(tert-butyl)-N-(4-(5-(4-(1-(3-(4-(2,6-dioxopiperidin-3-yl)-3-methylphenoxy)propyl)piperidin-4-yl)phenyl)-1H-pyrazolo[3,4-b]pyridin-3-yl)-2-methylbenzyl)-1,2,4-oxadiazole-5-carboxamide] | 9.25 nM | 95.3%
3 | COc1cc(N2CCC(CCN3CCC(c4ccc(-c5cnc6[nH]nc(-c7ccc(CNC(=O)c8nc(C(C)(C)C)no8)c(C)c7)c6c5)cc4)CC3)CC2)ccc1N1CCC(=O)NC1=O [Example 28, 3-(tert-butyl)-N-(4-(5-(4-(1-(2-(1-(4-(2,4-dioxotetrahydropyrimidin-1(2H)-yl)-3-methoxyphenyl)piperidin-4-yl)ethyl)piperidin-4-yl)phenyl)-1H-pyrazolo[3,4-b]pyridin-3-yl)-2-methylbenzyl)-1,2,4-oxadiazole-5-carboxamide] | 2.54 nM | 97.1%
4 | Cc1cc(-c2n[nH]c3ncc(-c4ccc(C5CCN(CCc6ccc(OC7CCC(=O)NC7=O)cc6)CC5)cc4)cc23)ccc1CNC(=O)c1nc(C(C)(C)C)no1 (stereo not shown) [Example 29, 3-(tert-butyl)-N-(4-(5-(4-(1-(4-((2,6-dioxopiperidin-3-yl)oxy)phenethyl)piperidin-4-yl)phenyl)-1H-pyrazolo[3,4-b]pyridin-3-yl)-2-methylbenzyl)-1,2,4-oxadiazole-5-carboxamide] | 3.2 nM | 95.4%
5 | COc1cc(OCCCN2CCC(c3ccc(-c4cnc5[nH]nc(-c6ccc(CNC(=O)c7nc(C(C)(C)C)no7)c(C)c6)c5c4)cc3)CC2)ccc1C1CCC(=O)NC1=O (stereo not shown) [Example 30, 3-(tert-butyl)-N-(4-(5-(4-(1-(3-(4-(2,6-dioxopiperidin-3-yl)-3-methoxyphenoxy)propyl)piperidin-4-yl)phenyl)-1H-pyrazolo[3,4-b]pyridin-3-yl)-2-methylbenzyl)-1,2,4-oxadiazole-5-carboxamide] | 8.19 nM | 97.5%
6 | Cc1cc(-c2n[nH]c3ncc(-c4ccc(N5CCN(CC6CCN(c7ccc(N8CCC(=O)NC8=O)cc7)CC6)CC5)cc4)cc23)ccc1CNC(=O)c1cn(C(C)(C)C)nn1 [Example 31, 1-(tert-butyl)-N-(4-(5-(4-(4-((1-(4-(2,4-dioxotetrahydropyrimidin-1(2H)-yl)phenyl)piperidin-4-yl)methyl)piperazin-1-yl)phenyl)-1H-pyrazolo[3,4-b]pyridin-3-yl)-2-methylbenzyl)-1H-1,2,3-triazole-4-carboxamide] | 21.8 nM | 97.4%
7 | Cc1cc(-c2n[nH]c3ncc(-c4ccc(N5CCN(CC6CCN(c7ccc(N8CCC(=O)NC8=O)cc7)CC6)CC5)cc4)cc23)ccc1CNC(=O)c1cnn(C(C)(C)C)c1 [Example 32, 1-(tert-butyl)-N-(4-(5-(4-(4-((1-(4-(2,4-dioxotetrahydropyrimidin-1(2H)-yl)phenyl)piperidin-4-yl)methyl)piperazin-1-yl)phenyl)-1H-pyrazolo[3,4-b]pyridin-3-yl)-2-methylbenzyl)-1H-pyrazole-4-carboxamide] | 2.55 nM | 93.6%
8 | Cc1cc(-c2n[nH]c3ncc(-c4ccc(N5CCN(CCc6ccc(C7CCC(=O)NC7=O)cc6)CC5)cc4)cc23)ccc1[C@@H](C)NC(=O)c1nc(C(C)(C)C)no1 (stereo partly drawn) [Example 33, 3-(tert-butyl)-N-((1R)-1-(4-(5-(4-(4-(4-(2,6-dioxopiperidin-3-yl)phenethyl)piperazin-1-yl)phenyl)-1H-pyrazolo[3,4-b]pyridin-3-yl)-2-methylphenyl)ethyl)-1,2,4-oxadiazole-5-carboxamide] | 3.85 nM | 99.4%
9 | Cc1cc(-c2n[nH]c3ncc(-c4ccc(N5CCN(CCc6ccc(C7CCC(=O)NC7=O)c(F)c6)CC5)cc4)cc23)ccc1[C@@H](C)NC(=O)c1nc(C(C)(C)C)no1 (stereo partly drawn) [Example 34, 3-(tert-butyl)-N-((1R)-1-(4-(5-(4-(4-(4-(2,6-dioxopiperidin-3-yl)-3-fluorophenethyl)piperazin-1-yl)phenyl)-1H-pyrazolo[3,4-b]pyridin-3-yl)-2-methylphenyl)ethyl)-1,2,4-oxadiazole-5-carboxamide] | 3.39 nM | 95.6%

Next, values leading:

Row | DC50 | Dmax | SMILES
10 | 1.9 nM | 93% | Cc1cc(-c2n[nH]c3ncc(-c4ccc(N5CCN(CCc6ccc(C7CCC(=O)NC7=O)cc6)CC5)cc4)cc23)ccc1[C@@H](C)NC(=O)c1noc(C(C)(C)C)n1 (stereo partly drawn) [Example 35, 5-(tert-butyl)-N-((1R)-1-(4-(5-(4-(4-(4-(2,6-dioxopiperidin-3-yl)phenethyl)piperazin-1-yl)phenyl)-1H-pyrazolo[3,4-b]pyridin-3-yl)-2-methylphenyl)ethyl)-1,2,4-oxadiazole-3-carboxamide]
11 | 3 nM | 98.3% | Cc1cc(-c2n[nH]c3ncc(-c4ccc(N5CCN(CCc6ccc(C7CCC(=O)NC7=O)c(F)c6)CC5)cc4)cc23)ccc1[C@@H](C)NC(=O)c1noc(C(C)(C)C)n1 (stereo partly drawn) [Example 36, 5-(tert-butyl)-N-((1R)-1-(4-(5-(4-(4-(4-(2,6-dioxopiperidin-3-yl)-3-fluorophenethyl)piperazin-1-yl)phenyl)-1H-pyrazolo[3,4-b]pyridin-3-yl)-2-methylphenyl)ethyl)-1,2,4-oxadiazole-3-carboxamide]
12 | 2.52 nM | 93.4% | Cc1cc(-c2n[nH]c3ncc(-c4ccc(N5CCN(CC6CCN(c7ccc(N8CCC(=O)NC8=O)cc7)CC6)CC5)cc4)cc23)ccc1[C@@H](C)NC(=O)c1noc(C(C)(C)C)n1 [Example 37, (R)-5-(tert-butyl)-N-(1-(4-(5-(4-(4-((1-(4-(2,4-dioxotetrahydropyrimidin-1(2H)-yl)phenyl)piperidin-4-yl)methyl)piperazin-1-yl)phenyl)-1H-pyrazolo[3,4-b]pyridin-3-yl)-2-methylphenyl)ethyl)-1,2,4-oxadiazole-3-carboxamide]
13 | 3.2 nM |  | Cc1cc(-c2n[nH]c3ncc(-c4ccc(N5CCN(CC6CCN(c7ccc(N8CCC(=O)NC8=O)c(F)c7)CC6)CC5)cc4)cc23)ccc1[C@@H](C)NC(=O)c1noc(C(C)(C)C)n1 [Example 38, (R)-5-(tert-butyl)-N-(1-(4-(5-(4-(4-((1-(4-(2,4-dioxotetrahydropyrimidin-1(2H)-yl)-3-fluorophenyl)piperidin-4-yl)methyl)piperazin-1-yl)phenyl)-1H-pyrazolo[3,4-b]pyridin-3-yl)-2-methylphenyl)ethyl)-1,2,4-oxadiazole-3-carboxamide]
14 | 2.6 nM |  | Cc1cc(-c2n[nH]c3ncc(-c4ccc(N5CCN(CC6CCN(c7ccc(N8CCC(=O)NC8=O)c(C)c7)CC6)CC5)cc4)cc23)ccc1[C@@H](C)NC(=O)c1noc(C(C)(C)C)n1 [Example 39, (R)-5-(tert-butyl)-N-(1-(4-(5-(4-(4-((1-(4-(2,4-dioxotetrahydropyrimidin-1(2H)-yl)-3-methylphenyl)piperidin-4-yl)methyl)piperazin-1-yl)phenyl)-1H-pyrazolo[3,4-b]pyridin-3-yl)-2-methylphenyl)ethyl)-1,2,4-oxadiazole-3-carboxamide]
15 | 7.32 nM |  | Cc1cc(CCN2CCN(c3ccc(-c4cnc5[nH]nc(-c6ccc([C@@H](C)NC(=O)c7noc(C(C)(C)C)n7)c(C)c6)c5c4)cc3)CC2)ccc1C1CCC(=O)NC1=O (stereo partly drawn) [Example 40, 5-(tert-butyl)-N-((1R)-1-(4-(5-(4-(4-(4-(2,6-dioxopiperidin-3-yl)-3-methylphenethyl)piperazin-1-yl)phenyl)-1H-pyrazolo[3,4-b]pyridin-3-yl)-2-methylphenyl)ethyl)-1,2,4-oxadiazole-3-carboxamide]
16 | 7.05 nM |  | Cc1cc(-c2n[nH]c3ncc(-c4ccc(N5CCN(CC6CCN(c7ccc(N8CCC(=O)NC8=O)cc7)CC6)CC5)cc4)cc23)ccc1CNC(=O)c1noc(C(C)(C)C(F)(F)F)n1 [Example 41, N-(4-(5-(4-(4-((1-(4-(2,4-dioxotetrahydropyrimidin-1(2H)-yl)phenyl)piperidin-4-yl)methyl)piperazin-1-yl)phenyl)-1H-pyrazolo[3,4-b]pyridin-3-yl)-2-methylbenzyl)-5-(1,1,1-trifluoro-2-methylpropan-2-yl)-1,2,4-oxadiazole-3-carboxamide]
